Data: the supplement of paper PMC11061612

Columns and labels:
[1] = compound: CN(CC[C@H](CSC1=CC=CC=C1)NC2=C(C=C(C=C2)S(=O)(=O)NC(=O)C3=CC=C(C=C3)N4CCC(CC4)[C@H](C5=CC=CC=C5C6=CC=C(C=C6)Cl)O)S(=O)(=O)C(F)(F)F)CCO [AZD4320]; settings: max 1 µM
Outline: (§1)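 Following 24 hours at 37°C and 5% CO2, cancer cell lines in 1536-well plates with 7.5 μl DMEM/F12 or RPMI and 10% FBS were dosed for 72 hours, final DMSO typically being 0.2%. CellTiter-Glo 2.0 luminescence, scaled between blank-well and DMSO-well means, gave the viability readout. Dose responses were fitted to a two-parameter logistic curve with a non-linear mixed effects model, and the single-agent IC50 was derived from this fit.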

[2] = compound: C[C@@H](c1ccc2nccn2c1)n1nnc2ncc(-c3cnn(C)c3)nc21 [Savolitinib]; settings: max 1 µM
Outline: as §1

[3] = compound: CCN(CCO)CCCOc1ccc2c(Nc3cc(CC(=O)Nc4cccc(F)c4)[nH]n3)ncnc2c1 [AZD2811]; settings: max 1 µM
Outline: as §1

[4] = compound: COc1cccc(OCCCN)c1-c1cc(Nc2cnc(C#N)cn2)n[nH]1 [Prexasertib]; settings: max 1 µM
Outline: as §1

[5] = compound: C[C@@H](Nc1cc(F)cc(F)c1)c1cc(C(=O)N(C)C)cc2c(=O)cc(N3CCOCC3)oc12 [AZD8186]; settings: max 3 µM
Outline: as §1

[6] = compound: CC(=O)Nc1cccc(-n2c(=O)n(C3CC3)c(=O)c3c(Nc4ccc(I)cc4F)n(C)c(=O)c(C)c32)c1 [Trametinib]; settings: max 1 µM
Outline: as §1

[7] = compound: CC1=C(C(=CC=C1)Cl)NC(=O)C2=CN=C(S2)NC3=CC(=NC(=N3)C)N4CCN(CC4)CCO [Dasatinib]; settings: max 2 µM
Outline: as §1

[8] = compound: C=CCn1c(=O)c2cnc(Nc3ccc(N4CCN(C)CC4)cc3)nc2n1-c1cccc(C(C)(C)O)n1 [AZD1775]; settings: max 3 µM
Outline: as §1

[9] = compound: O=C(c1cc(Cc2n[nH]c(=O)c3ccccc23)ccc1F)N1CCN(C(=O)C2CC2)CC1 [Olaparib]; settings: max 10 µM
Outline: as §1

[10] = compound: CS(=O)(=O)CCNCc1ccc(-c2ccc3ncnc(Nc4ccc(OCc5cccc(F)c5)c(Cl)c4)c3c2)o1 [Lapatinib]; settings: max 10 µM
Outline: as §1

[11] = compound: C[C@@H]1COCCN1C2=NC(=NC(=C2)C3(CC3)[S@](=N)(=O)C)C4=C5C=CNC5=NC=C4 [AZD6738]; settings: max 10 µM
Outline: as §1

[12] = compound: C1CN(CCC1(C(=O)N[C@@H](CCO)C2=CC=C(C=C2)Cl)N)C3=NC=NC4=C3C=CN4 [Capivasertib]; settings: max 10 µM
Outline: as §1

[13] = compound: COc1cc(Nc2ncc3c(n2)-c2ccc(Cl)cc2C(c2c(F)cccc2OC)=NC3)ccc1C(=O)O [Alisertib]; settings: max 10 µM
Outline: as §1

[14] = compound: Cc1cc2ncnn2cc1Nc1ncc2c(n1)n(C1CCOCC1)c(=O)n2C [AZD7648]; settings: max 10 µM
Outline: as §1

[15] = compound: Cc1nc(-c2cn3c(n2)-c2ccc(-c4cnn(C(C)(C)C(N)=O)c4)cc2OCC3)n(C(C)C)n1 [Taselisib]; settings: max 10 µM
Outline: as §1

[16] = compound: Cn1cnc2c(F)c(Nc3ccc(Br)cc3Cl)c(C(=O)NOCCO)cc21 [Selumetinib]; settings: max 10 µM
Outline: as §1

[17] = compound: COc1nnc2ccc(N3CCC(c4ccc(OCCN5CCN(C)C(=O)[C@H]5C)cc4)CC3)nn12 [AZD5153]; settings: max 1 µM
Outline: as §1

[18] = compound: COc1cccc2c1C(=O)c1c(O)c3c(c(O)c1C2=O)C[C@@](O)(C(=O)CO)C[C@@H]3O[C@H]1C[C@H](N)[C@H](O)[C@H](C)O1 [Doxorubicin]; settings: max 1 µM
Outline: as §1

[19] = compound: CC1=CN2[C@@H](C1)C=NC3=CC(=C(C=C3C2=O)OC)OCCCCCOC4=C(C=C5C(=C4)N=C[C@@H]6CC(=CN6C5=O)C)OC [SG3199]; settings: max 0.001 µM
Outline: as §1

[20] = compound: CC(=O)c1c(C)c2cnc(Nc3ccc(N4CCNCC4)cn3)nc2n(C2CCCC2)c1=O [Palbociclib]; settings: max 10 µM
Outline: as §1

[21] = compound: COc1cc2ncnc(Nc3ccc(F)c(Cl)c3)c2cc1OCCCN1CCOCC1 [Gefitinib]; settings: max 10 µM
Outline: as §1

[22] = compound: CN(C)CCCOc1ccc(-c2ccc3ncc4c(c3c2)n(C2CCOCC2)c(=O)n4C)cn1 [AZD0156]; settings: max 3 µM
Outline: as §1

[23] = compound: Cc1c2c(nn1C)CSCc1cc(n(C)n1)CSc1cc(c3ccccc3c1)OCCCc1c(C(=O)O)n(C)c3c-2c(Cl)ccc13 [AZD5991]; settings: max 1 µM
Outline: as §1

[24] = compound: CCc1c2c(nc3ccc(O)cc13)-c1cc3c(c(=O)n1C2)COC(=O)[C@]3(O)CC [SN-38]; settings: max 0.3 µM
Outline: as §1

[25] = compound: CC1(C)CCC(CN2CCN(c3ccc(C(=O)NS(=O)(=O)c4ccc(NCC5CCOCC5)c([N+](=O)[O-])c4)c(Oc4cnc5[nH]ccc5c4)c3)CC2)=C(c2ccc(Cl)cc2)C1 [Venetoclax]; settings: max 1 µM
Outline: as §1

[26] = compound: C[C@@H](Oc1cc(-c2cnn(C3CCNCC3)c2)cnc1N)c1c(Cl)ccc(F)c1Cl [Crizotinib]; settings: max 10 µM
Outline: as §1

[27] = compound: CC(C)n1c(=O)n(C)c2cnc3cc(F)c(-c4ccc(OCCCN5CCCCC5)nc4)cc3c21 [AZD1390]; settings: max 0.3 µM
Outline: as §1

Cell Line | IC50, cell viability 72 h [1] | IC50, cell viability 72 h [2] | IC50, cell viability 72 h [3] | IC50, cell viability 72 h [4] | IC50, cell viability 72 h [5] | IC50, cell viability 72 h [6] | IC50, cell viability 72 h [7] | IC50, cell viability 72 h [8] | IC50, cell viability 72 h [9] | IC50, cell viability 72 h [10] | IC50, cell viability 72 h [11] | IC50, cell viability 72 h [12] | IC50, cell viability 72 h [13] | IC50, cell viability 72 h [14] | IC50, cell viability 72 h [15] | IC50, cell viability 72 h [16] | IC50, cell viability 72 h [17] | IC50, cell viability 72 h [18] | IC50, cell viability 72 h [19] | IC50, cell viability 72 h [20] | IC50, cell viability 72 h [21] | IC50, cell viability 72 h [22] | IC50, cell viability 72 h [23] | IC50, cell viability 72 h [24] | IC50, cell viability 72 h [25] | IC50, cell viability 72 h [26] | IC50, cell viability 72 h [27]
CESS (Acute Myeloid Leukemia) | > 1 µM | > 1 µM | > 1 µM | 0.0122 µM | 2.14 µM | > 1 µM | 1.4 µM | 0.353 µM | > 10 µM | > 10 µM | 2.08 µM | 4.12 µM | 0.107 µM | > 10 µM | 7.4 µM | > 10 µM | 0.297 µM | 0.237 µM | > 0.001 µM | 8.03 µM | > 10 µM | > 3 µM | > 1 µM | 0.00615 µM | > 1 µM | 4.01 µM | > 0.3 µM
GCT (Other Solid Carcinomas) | > 1 µM | > 1 µM | > 1 µM | > 1 µM | > 3 µM | 0.846 µM | 0.703 µM | > 3 µM | > 10 µM | > 10 µM | > 10 µM | 6.42 µM | > 10 µM | > 10 µM | 8.27 µM | > 10 µM | 0.603 µM | > 1 µM | > 0.001 µM | > 10 µM | > 10 µM | > 3 µM | > 1 µM | 0.0435 µM | > 1 µM | > 10 µM | > 0.3 µM
NCI-H716 (Colorectal Carcinoma) | > 1 µM | > 1 µM | > 1 µM | 0.181 µM | > 3 µM | > 1 µM | > 2 µM | 1.6 µM | > 10 µM | > 10 µM | > 10 µM | > 10 µM | 2.23 µM | > 10 µM | > 10 µM | > 10 µM | 0.775 µM | > 1 µM | > 0.001 µM | > 10 µM | > 10 µM | > 3 µM | > 1 µM | > 0.3 µM | > 1 µM | > 10 µM | > 0.3 µM
KYSE-140 (Esophageal Squamous Cell Carcinoma) | > 1 µM | > 1 µM | > 1 µM | 0.012 µM | > 3 µM | 0.858 µM | 1.23 µM | 0.423 µM | > 10 µM | 7.25 µM | 0.66 µM | 1.66 µM | > 10 µM | > 10 µM | 1.13 µM | > 10 µM | 0.827 µM | > 1 µM | > 0.001 µM | > 10 µM | 1.93 µM | > 3 µM | > 1 µM | > 0.3 µM | > 1 µM | > 10 µM | > 0.3 µM
CAL-27 (Oral Cavity Carcinoma) | > 1 µM | > 1 µM | 0.608 µM | 0.894 µM | > 3 µM | 0.129 µM | 0.431 µM | 1.85 µM | > 10 µM | 0.933 µM | > 10 µM | > 10 µM | 0.443 µM | > 10 µM | 0.854 µM | 1.89 µM | 0.426 µM | 0.927 µM | > 0.001 µM | > 10 µM | 0.839 µM | > 3 µM | 0.413 µM | 0.0136 µM | > 1 µM | > 10 µM | > 0.3 µM
EPLC-272H (Other Solid Carcinomas) | > 1 µM | > 1 µM | > 1 µM | 0.00851 µM | > 3 µM | 0.0227 µM | 0.148 µM | 0.454 µM | > 10 µM | 5.77 µM | 1 µM | 1.8 µM | > 10 µM | > 10 µM | 0.256 µM | 2.28 µM | 0.116 µM | > 1 µM | > 0.001 µM | > 10 µM | 5.46 µM | > 3 µM | 0.391 µM | 0.126 µM | > 1 µM | > 10 µM | > 0.3 µM
Jurkat (T-Lymphoblastic Leukemia) | 0.482 µM | > 1 µM | > 1 µM | 0.0258 µM | > 3 µM | > 1 µM | > 2 µM | 1.74 µM | > 10 µM | > 10 µM | 3.55 µM | 2.61 µM | 8.51 µM | > 10 µM | 5.81 µM | > 10 µM | 0.21 µM | 0.415 µM | > 0.001 µM | 7.66 µM | > 10 µM | > 3 µM | 0.292 µM | 0.00797 µM | > 1 µM | > 10 µM | > 0.3 µM
OACp4C (Esophageal Adenocarcinoma) | 0.117 µM | > 1 µM | 0.618 µM | 0.116 µM | > 3 µM | 0.0568 µM | 0.18 µM | 0.342 µM | > 10 µM | 2.12 µM | 3.03 µM | 1.63 µM | 1.9 µM | > 10 µM | 0.0931 µM | 5.81 µM | 0.695 µM | 0.323 µM | > 0.001 µM | > 10 µM | > 10 µM | > 3 µM | > 1 µM | 0.104 µM | > 1 µM | 3.56 µM | > 0.3 µM
